Test system: NOMO1
Assay: cell viability relative to DMSO control; higher = less cytotoxic
Settings: 48 h
Method in brief: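 Viability is expressed as a percentage of DMSO wells within each plate, and cell-free wells serve as background. Seeding densities in the 1536-well plates (5 μl) were 500 cells/well for NOMO1 or SEM leukemia cells and 1000 cells/well for P12-Ichikawa. Each line was adapted for at least four passages in each medium. Library compounds in DMSO were pin-dosed at 47 μM to 0.79 nM (11 points, threefold), and CellTiter-Glo One luminescence was read after 48 h at 37°C.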

[1] = HPLM + 10% dialyzed FBS, 0.000781 µM
[2] = HPLM + 10% dialyzed FBS, 0.00234 µM
[3] = HPLM + 10% dialyzed FBS, 0.00702 µM
[4] = HPLM + 10% dialyzed FBS, 0.0211 µM
[5] = HPLM + 10% dialyzed FBS, 0.0632 µM
[6] = HPLM + 10% dialyzed FBS, 0.19 µM
[7] = HPLM + 10% dialyzed FBS, 0.569 µM
[8] = HPLM + 10% dialyzed FBS, 1.71 µM
[9] = HPLM + 10% dialyzed FBS, 5.12 µM
[10] = HPLM + 10% dialyzed FBS, 15.4 µM
[11] = HPLM + 10% dialyzed FBS, 46.1 µM
[12] = RPMI 5 mM glucose + 10% FBS, 0.000781 µM
[13] = RPMI 5 mM glucose + 10% FBS, 0.00234 µM
[14] = RPMI 5 mM glucose + 10% FBS, 0.00702 µM
[15] = RPMI 5 mM glucose + 10% FBS, 0.0211 µM
[16] = RPMI 5 mM glucose + 10% FBS, 0.0632 µM
[17] = RPMI 5 mM glucose + 10% FBS, 0.19 µM
[18] = RPMI 5 mM glucose + 10% FBS, 0.569 µM
[19] = RPMI 5 mM glucose + 10% FBS, 1.71 µM
[20] = RPMI 5 mM glucose + 10% FBS, 5.12 µM
[21] = RPMI 5 mM glucose + 10% FBS, 15.4 µM
[22] = RPMI 5 mM glucose + 10% FBS, 46.1 µM
[23] = RPMI 5 mM glucose + 10% dialyzed FBS, 0.000781 µM
[24] = RPMI 5 mM glucose + 10% dialyzed FBS, 0.00234 µM
[25] = RPMI 5 mM glucose + 10% dialyzed FBS, 0.00702 µM
[26] = RPMI 5 mM glucose + 10% dialyzed FBS, 0.0211 µM
[27] = RPMI 5 mM glucose + 10% dialyzed FBS, 0.0632 µM
[28] = RPMI 5 mM glucose + 10% dialyzed FBS, 0.19 µM
[29] = RPMI 5 mM glucose + 10% dialyzed FBS, 0.569 µM
[30] = RPMI 5 mM glucose + 10% dialyzed FBS, 1.71 µM
[31] = RPMI 5 mM glucose + 10% dialyzed FBS, 5.12 µM
[32] = RPMI 5 mM glucose + 10% dialyzed FBS, 15.4 µM
[33] = RPMI 5 mM glucose + 10% dialyzed FBS, 46.1 µM

Row | SMILES | cell viability [1] [%] | cell viability [2] [%] | cell viability [3] [%] | cell viability [4] [%] | cell viability [5] [%] | cell viability [6] [%] | cell viability [7] [%] | cell viability [8] [%] | cell viability [9] [%] | cell viability [10] [%] | cell viability [11] [%] | cell viability [12] [%] | cell viability [13] [%] | cell viability [14] [%] | cell viability [15] [%] | cell viability [16] [%] | cell viability [17] [%] | cell viability [18] [%] | cell viability [19] [%] | cell viability [20] [%] | cell viability [21] [%] | cell viability [22] [%] | cell viability [23] [%] | cell viability [24] [%] | cell viability [25] [%] | cell viability [26] [%] | cell viability [27] [%] | cell viability [28] [%] | cell viability [29] [%] | cell viability [30] [%] | cell viability [31] [%] | cell viability [32] [%] | cell viability [33] [%]
1 | O=C(NOCC(O)CO)c1cc(Br)c(F)c(F)c1Nc1ccc(I)cc1F (stereo not drawn) | 65.8 | 77.1 | 72.1 | 79.8 | 59.2 | 50.5 | 30.1 | 32.6 | 29 | 33.9 | 20 | 69.1 | 90.6 | 67.6 | 73.3 | 66.5 | 50.5 | 28.1 | 33.7 | 27.5 | 28.8 | 27.8 | 81.3 | 84.3 | 59.2 | 58.1 | 49.8 | 40.9 | 27.5 | 30.3 | 26.7 | 31.2 | 24.6
2 | COc1nccc(-c2c(-c3ccc(F)cc3)ncn2C2CCNCC2)n1 | 95.7 | 121 | 124 | 127 | 120 | 121 | 119 | 94.4 | 107 | 78.3 | 49.4 | 45.8 | 120 | 115 | 101 | 113 | 107 | 100 | 112 | 96.7 | 97.6 | 74 | 44.9 | 119 | 97.3 | 110 | 106 | 104 | 108 | 104 | 101 | 99.1 | 68
3 | CCC1(C)CC(=O)NC1=O (stereo not drawn) | 114 | 116 | 105 | 118 | 102 | 111 | 104 | 93.9 | 105 | 86.7 | 84.2 | 85.5 | 89.2 | 84.7 | 87.5 | 89.2 | 92.2 | 99.2 | 81.7 | 90.3 | 94.5 | 77.4 | 104 | 98.1 | 96.7 | 94.3 | 81.3 | 101 | 98.4 | 92.7 | 96.6 | 88.2 | 87.6
4 | COc1c(C)cnc(Cn2cnc3c(Cl)nc(N)nc32)c1C | 108 | 112 | 138 | 120 | 151 | 129 | 80.8 | 36.7 | 19.8 | 18.2 | 14.3 | 117 | 112 | 115 | 139 | 129 | 119 | 91.7 | 26.5 | 18.6 | 14.3 | 15.7 | 119 | 122 | 121 | 132 | 128 | 101 | 90.1 | 34.9 | 18.2 | 18 | 20.2
5 | CNC1CCC(N(Cc2cccc(-c3ccncc3)c2)C(=O)c2sc3ccccc3c2Cl)CC1 (stereo not drawn) | 74.1 | 92.9 | 104 | 113 | 107 | 99 | 101 | 36.1 | 6.61 | 7.33 | 1.5 | 90.8 | 85.3 | 85.5 | 93 | 86 | 90.6 | 92.4 | 87.7 | 11.3 | 5.87 | 1.62 | 79.3 | 88.3 | 93.2 | 87 | 84.7 | 97.8 | 95.9 | 102 | 55 | 60.4 | 1.53
6 | C#Cc1cccc(Nc2ncnc3cc(OCCOC)c(OCCOC)cc23)c1 | 94.2 | 104 | 101 | 83.7 | 108 | 86 | 90.9 | 110 | 79.3 | 75.3 | 45.7 | 85.4 | 96.9 | 102 | 102 | 93.2 | 91.8 | 95 | 93.7 | 89.7 | 85.1 | 70.7 | 92.2 | 85.5 | 88.9 | 83.4 | 86.6 | 83.8 | 85.4 | 89 | 77.6 | 84 | 50.2
7 | CC\1=C/C=C\C=[N]1[Pt](N)(Cl)Cl | 118 | 105 | 111 | 110 | 108 | 130 | 131 | 98.8 | 106 | 129 | 108 | 96.4 | 95.6 | 93.4 | 103 | 99.6 | 113 | 106 | 88.7 | 106 | 110 | 93.3 | 107 | 90.8 | 96.6 | 95.3 | 96.4 | 111 | 97.3 | 104 | 107 | 109 | 96.3
8 | CC1=CC=CC=C1N2\C(=N/C3=C(C(=CC=C3)C)C2=O)C[N]4C=NC5=C4N=CN=C5N |  |  |  |  |  |  |  |  |  |  |  | 107 | 106 | 122 | 108 | 110 | 106 | 107 | 94.4 | 69.2 | 72.9 | 67 | 108 | 109 | 109 | 97.1 | 113 | 92.6 | 94.8 | 80.8 | 67.2 | 64.5 | 61.1
9 | Cn1c(=O)c2c(ncn2C)n(C)c1=O.O=C(O)CC(O)(CC(=O)O)C(=O)O | 118 | 106 | 123 | 133 | 105 | 114 | 100 | 104 | 98.9 | 86 | 109 | 95.4 | 98.9 | 107 | 101 | 115 | 104 | 106 | 106 | 101 | 91.2 | 93.8 | 93.8 | 113 | 109 | 106 | 114 | 107 | 119 | 98.6 | 97.3 | 89.2 | 85.4
10 | CC1(C)O[C@@H]2C[C@H]3[C@@H]4CCC5=CC(=O)C=C[C@]5(C)[C@@]4(F)[C@@H](O)C[C@]3(C)[C@]2(C(=O)CO)O1 | 110 | 119 | 112 | 111 | 117 | 108 | 90.6 | 105 | 86.3 | 48.4 | 25.8 | 98.3 | 112 | 96.1 | 111 | 115 | 121 | 117 | 109 | 97.7 | 33.2 | 18.1 | 106 | 112 | 111 | 127 | 122 | 117 | 113 | 110 | 99.8 | 105 | 32.2
11 | COc1cnc(N[S+](=O)([O-])c2ccc(N)cc2)nc1 | 111 | 114 | 106 | 125 | 125 | 119 | 114 | 130 | 114 | 84.5 | 31.1 | 122 | 118 | 114 | 112 | 124 | 131 | 138 | 128 | 125 | 110 | 48.2 | 110 | 118 | 123 | 125 | 121 | 127 | 114 | 125 | 98.5 | 97.5 | 63.5
12 | CCCCCCCCCCCCCCCCCCCCCCO | 108 | 134 | 120 | 140 | 125 | 150 | 133 | 148 | 147 | 147 | 129 |  |  |  |  |  |  |  |  |  |  |  | 121 | 107 | 129 | 128 | 132 | 140 | 141 | 140 | 123 | 143 | 145
13 | COC1=NC(=NC(=C1N\C2=N\CCN2)Cl)C | 113 | 94.9 | 90.3 | 93.6 | 111 | 104 | 89.5 | 109 | 82 | 97.6 | 84.8 | 79.1 | 83.8 | 89.1 | 93.1 | 94 | 100 | 84.2 | 91.8 | 92.5 | 86.5 | 90 | 86.2 | 85.8 | 82.8 | 85 | 95.6 | 94 | 91.3 | 86.5 | 80.3 | 89.5 | 85.3
14 | CC(C)n1nc(-c2cc3cc(O)ccc3[nH]2)c2c(N)ncnc21 | 79 | 124 | 110 | 107 | 99.7 | 94.7 | 65.7 | 61.6 | 44.7 | 31.2 | 27 | 96.2 | 113 | 104 | 105 | 104 | 96.6 | 88.1 | 90.2 | 71.8 | 44.1 | 23 | 111 | 110 | 100 | 101 | 101 | 90.9 | 76.7 | 78 | 54.2 | 34.1 | 14.1
15 | CC(=O)Nc1ccc(OC[C@](C)(O)C(=O)Nc2ccc([N+](=O)[O-])c(C(F)(F)F)c2)cc1 | 66.3 | 68.2 | 72.9 | 70.6 | 87.7 | 80.2 | 88.4 | 83.5 | 83.4 | 77.8 | 82.4 | 70.5 | 76.9 | 75.4 | 82.8 | 87 | 83 | 82.8 | 88.2 | 76.2 | 86.9 | 82.2 | 72 | 78.1 | 87.3 | 83.1 | 92.7 | 86.1 | 85.1 | 85.6 | 85.2 | 92.5 | 78

From the supplement of paper PMC11451515
